Series [1] has as its target T1, aromatase from human placental microsomes (Homo sapiens, UniProt P11511).
T1 construct: in human placenta microsomes; from tissue; host or cells: human placenta, microsomes
T1 sequence (P11511 1-503): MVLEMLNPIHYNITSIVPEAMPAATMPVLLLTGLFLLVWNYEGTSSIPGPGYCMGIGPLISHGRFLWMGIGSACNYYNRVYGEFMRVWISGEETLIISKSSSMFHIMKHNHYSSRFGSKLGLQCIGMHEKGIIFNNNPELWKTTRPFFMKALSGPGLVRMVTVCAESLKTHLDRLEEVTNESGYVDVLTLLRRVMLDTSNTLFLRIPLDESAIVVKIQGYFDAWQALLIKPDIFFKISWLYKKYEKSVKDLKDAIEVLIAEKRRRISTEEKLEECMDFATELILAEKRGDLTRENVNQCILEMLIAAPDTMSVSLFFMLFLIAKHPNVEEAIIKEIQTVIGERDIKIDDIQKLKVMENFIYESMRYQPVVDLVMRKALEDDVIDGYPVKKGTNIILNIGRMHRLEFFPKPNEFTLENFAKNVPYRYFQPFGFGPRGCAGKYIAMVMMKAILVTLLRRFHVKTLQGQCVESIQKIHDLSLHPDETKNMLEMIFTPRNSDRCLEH
Put plainly: In vitro inhibition of aromatase in human placenta microsomes. It is filed as biochemical. To be noted: [1,2-3H] androstenedione. Here is the method:
(b) Inhibition of aromatase obtained from human placenta
The activity was measured in accordance with the method described in Endocrine Research, 16 (2) 253 (1990).
The inhibition activity of the compound was determined based on the inhibition of ^3 H2 O to be released from [1,2-^3 H] androstenedione in human placenta microsomes.
1. In vitro inhibition of aromatase in human placenta microsomes:
IC50 value for ex vivo inhibition of aromatase from human placental microsomes was obtained in accordance with the above-mentioned experimental method (1-b), and the results obtained are shown in Table 1.

In series [2] the test system is aldosterone production. Put plainly: In vivo inhibition of aldosterone production in rats (ACTH-stimulated blood aldosterone). The arrangement: species or system rat. To be noted: 100 mg/kg, five rats, one-way ANOVA. Here is the method: (b) In vivo inhibition of aldosterone production in rats:
The inhibitory activity was measured in accordance with the method described in J. Steroid Biochem., 34 567 (1989). The inhibitory activity of a test compound was determined based on inhibition of the blood aldosterone to be increased by stimulation by ACTH in rats. The amount of aldosterone was measured by RIA.
3. In vivo inhibition of aldosterone production in rats:
By the above-mentioned experimental method (4-b), aldosterone production inhibitory activity in rats was measured.
The statistical significance of value was analyzed by using one-way ANOVA. The results mean that the compounds of the present invention are highly safe compounds with few harmful side effects also in the in vivo test as well.

Series [3] has as its system cortisol production, rabbit adrenal cultured cells. Put plainly: In vitro inhibition of cortisol production (ACTH-stimulated rabbit adrenal cultured cells). In kind it is cell-based. The settings on record: Oryctolagus cuniculus. Here is the method: (5) In vitro inhibition of cortisol production:
The inhibitory activity was measured in accordance with the method described in Endocrinology, 114 (2) 486 (1984). The inhibitory activity of a test compound was determined based on inhibition of the cortisol production produced by stimulation of first-generation of rabit adrenal cultured cells by ACTH. The amount of cortisol was measured by RIA.
4. In vitro inhibition of cortisol production in rabbit:
IC50 value of the compounds for in vitro inhibition of cortisol production was obtained by the above-mentioned experimental method (5), and the results obtained are shown in Table 3.

Series [4] can be described thus: Metabolism: plasma concentration of the non-changed compound after oral administration to rats. It is filed as in vivo. The settings on record: rat, 3 mg/kg oral. From the text:
From the results, it is understood that the compound of the present invention has an excellent oral absorbability and that the effect of the absorbed compound lasts long. Thus, the compound has a good profile as a medicine.

The target of series [5] is T2, rat aromatase (rat ovarian microsomes) (Rattus norvegicus, UniProt P22443).
T2 construct: in rat ovarian microsomes; from tissue; host or cells: rat ovary, microsomes
T2 sequence (P22443 1-508): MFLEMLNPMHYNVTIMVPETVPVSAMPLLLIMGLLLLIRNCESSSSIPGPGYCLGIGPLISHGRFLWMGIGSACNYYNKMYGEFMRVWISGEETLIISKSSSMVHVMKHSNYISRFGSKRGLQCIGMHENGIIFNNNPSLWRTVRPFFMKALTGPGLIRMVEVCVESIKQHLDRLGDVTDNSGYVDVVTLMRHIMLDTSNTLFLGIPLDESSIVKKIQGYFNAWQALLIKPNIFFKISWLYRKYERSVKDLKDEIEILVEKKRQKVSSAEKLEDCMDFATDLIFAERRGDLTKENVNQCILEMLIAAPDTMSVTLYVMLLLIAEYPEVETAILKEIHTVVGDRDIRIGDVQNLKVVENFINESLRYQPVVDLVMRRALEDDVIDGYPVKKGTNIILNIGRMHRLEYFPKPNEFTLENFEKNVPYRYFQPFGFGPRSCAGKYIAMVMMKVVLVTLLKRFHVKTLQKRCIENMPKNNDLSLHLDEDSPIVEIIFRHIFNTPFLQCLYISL
Put plainly: In vitro inhibition of aromatase obtained from rat ovary. In kind it is biochemical. The protocol:
(a) Inhibition of aromatase obtained from rat ovary:
The activity was measured in accordance with the method described in J. Biol. Chem., 249 5364 (1974).
The IC50 value of the test compound on aromatase inhibition was determined based on inhibition of ^3 H2 O to be released from [1,2-^3 H] androstenedione in rat ovarian microsomes.
(§1) 2. Selectivity of In vitro inhibition of rat ovarian aromatase and in vitro aldosterone production in rat:
(§2) IC50 values for in vitro inhibition of rat aromatase and […] inhibition of rat aldosterone production were measured in accordance with the above-mentioned experimental methods (1-a) and (4-a), respectively. The selectivity indicates a ratio of IC50 value for rat aldosterone production to IC50 value for rat aromatase.

The subject of series [6] is aldosterone production, rat adrenal cultured cells. As to the kind of experiment: In vitro inhibition of aldosterone production (ACTH-stimulated rat adrenal cultured cells). It is filed as cell-based. The settings on record: read-out: IC50, Rat aldosterone inhibitory activity (B). The protocol:
(a) In vitro inhibition of aldosterone production:
The activity was measured in accordance with the method described in J. Vet. Pharmacol. Therap., 11 345 (1988). The inhibition activity of the test compound was determined based on the inhibition of aldosterone production produced by stimulation of first-generation of rat adrenal cultured cells by ACTH. The amount of aldosterone was measured by RIA.
as §1, §2

Three molecules from patent publication US5674886A, “Triazolylated teritiary amine compound or salt thereof” (Yamanouchi Pharmaceutical Co., Ltd., priority 1991, dated 1997) can be followed below.

Take `O=[N+]([O-])c1ccc(CN(c2ccc([N+](=O)[O-])cc2)n2cnnc2)cc1` [Example 10, 4-[N-(4-nitrobenzyl)-N-(4-nitrophenyl)amino]-4H-1,2,4-triazole]: the results for the half-inhibitory concentration (IC50) in series [1] and in series [3] were 0.11 nM and 7000 nM, respectively. Besides, the “inhibition of aldosterone production in rats (significance)” value (“inhibition … (significance)” below) in series [2] is listed as “did not inhibit aldosterone production significantly”.
Consider `O=[N+]([O-])c1ccc(N(Cc2ccc(Br)cc2)n2cnnc2)cc1` [Example 12, 4-[N-(4-bromobenzyl)-N-(4-nitrophenyl)amino]-4H-1,2,4-triazole], for which, in series [1], the IC50 was 0.03 nM. The “inhibition … (significance)” value in series [2] is “did not inhibit aldosterone production significantly”.
Turning to `N#Cc1ccc(N(Cc2ccc(Br)cc2)n2cnnc2)cc1` [Example 15, 4-[N-(4-bromobenzyl)-N-(4-cyanophenyl)amino]-4H-1,2,4-triazole], the IC50 stood at 0.13 nM in series [1]; 4000 nM in series [3]; 0.37 nM in series [5] (rat ovarian microsomes, in vitro, read-out: IC50, Rat aromatase inhibitory activity (A)); 2250 nM in series [6]. Besides, the half-life in series [4] (read-out: extinction half time (T1/2) (converted)) was 11 h. Moreover, the Cmax in series [4] (read-out: maximum value (Cmax) of the concentration of the non-changed compound in the plasma) worked out at 2880 ng/mL. Besides, in series [2], the “inhibition … (significance)” value was “did not inhibit aldosterone production significantly”. In series [5] (ratio of IC50 for rat aldosterone production to IC50 for rat aromatase), the “Selectivity (B/A)” value was determined as 6100.
